In paper PMC12040169 (PLOS Biology, 2025):

Assay: in vitro
Conditions: human, hela cells, % viability

Point of comparison: `CCn1c2ccccc2n2c(SC(C)C(=O)O)nnc12` (stereo not shown) [CBK267079], viability at 28.5 h, 10 µM 103%. Against it:
- O=S(=O)(c1ccc2ccccc2c1)N1CCN(CCCOc2ccccc2Cl)CC1 [CBK267018] — higher, 106%
- Cc1cccc(C)c1NC(=O)CC(C(=O)O)N(C)C (stereo not shown) [CBK267022] — lower, 90.9%
- COc1ccc(C)cc1NC(=S)NCc1cnn(C)c1 [CBK267025] — higher, 106%
- CCOc1ccccc1NC(=O)NCc1cccnc1 [CBK267026] — higher, 107%
- Nc1ncn(Cc2ccccc2)c2nc(SCC(=O)O)nc1-2 [CBK267027] — lower, 99.2%
- COC(=O)c1c(NC(=S)NCc2cccnc2)sc(C)c1C [CBK267029] — lower, 89.2%
- Cc1cc(=O)oc2cc(NC(=S)NNC(=O)C(C)Oc3ccc4c(c3)CCC4)ccc12 (stereo not shown) [CBK267031] — lower, 91.4%
- CCn1cc(NC(=S)Nc2sc3c(c2C(=O)OC)CCC(C)C3)c(C(N)=O)n1 (stereo not shown) [CBK267032] — higher, 105%
- O=C(O)Cn1nnc(-c2ccc(OCc3cccc(C(F)(F)F)c3)cc2)n1 [CBK267034] — lower, 97.7%
- Cn1c(SCC(=O)Nc2ccc(F)cc2)nnc1-c1cccnc1 [CBK267035] — lower, 94.7%
- O=C(O)c1ccc(CNC(=S)Nc2ccc([N+](=O)[O-])cc2)cc1 [CBK267037] — lower, 92.9%
- CCn1cc(CN(C)C(=S)Nc2cccc(C(C)=O)c2)c(C)n1 [CBK267040] — higher, 106%
- COc1cc([N+](=O)[O-])ccc1NC(=S)Nc1cccc(S(=O)(=O)N2CCOCC2)c1 [CBK267042] — lower, 96.9%
- CC(=O)c1c(C)oc2ccc(N(C(=O)c3cccc([N+](=O)[O-])c3)S(=O)(=O)c3cccc4cccnc34)cc12 [CBK267044] — lower, 70.2%
- O=S(=O)(Nc1ncccn1)c1ccc(NC(=S)Nc2ccc3c(c2)OCO3)cc1 [CBK267046] — lower, 89%
- COC(=O)c1cc(C)sc1NC(=S)Nc1ccccc1[N+](=O)[O-] [CBK267047] — lower, 99.9%
- S=C(NCCc1ccccc1)Nc1ccc2c(c1)OCCO2 [CBK267048] — higher, 110%
- Cc1cccnc1NC(=S)Nc1ccc(S(N)(=O)=O)cc1 [CBK267049] — higher, 111%
- CC(C)N(Cc1nc(-c2ccc(Cl)cc2)no1)S(=O)(=O)c1cccc([N+](=O)[O-])c1 [CBK267050] — lower, 83.6%
- COC(=O)c1c(NC(=S)NNC(=O)c2nn(C)c(C)c2Br)sc2c1CCC(C)C2 (stereo not shown) [CBK267052] — lower, 93.9%
- COC(=O)c1c(NC(=S)Nc2cccc(S(=O)(=O)N3CCOCC3)c2)sc2c1CCC2 [CBK267054] — lower, 93.8%
- Cc1cc(=O)oc2cc(NC(=S)NNC(=O)C(C)Sc3nc4ccccc4s3)ccc12 (stereo not shown) [CBK267056] — lower, 102%
- COC(=O)c1ccc(N/C(C)=C/C(=O)c2ccc(C)o2)cc1 [CBK267057] — higher, 115%
- COc1ccc(NC(=O)Nc2ccccc2C(N)=O)cc1OC [CBK267061] — lower, 94.1%
- O=C(O)Cc1ccc(NC(=S)Nc2cccc(Cl)c2Cl)cc1 [CBK267064] — higher, 107%
- O=C(CC(NCCO)C(=O)O)Nc1cccc(C(F)(F)F)c1 (stereo not shown) [CBK267065] — higher, 109%
- Cn1cc(I)c(C(=O)NNC(=S)Nc2ccc(S(N)(=O)=O)cc2)n1 [CBK267066] — higher, 106%
- O=[N+]([O-])c1ccc(S(=O)(=O)CC(CN2CCCCC2)N2CCCCC2)cc1 (stereo not shown) [CBK267070] — lower, 100%
- COc1cc(C=O)ccc1Oc1nnnn1-c1ccc(C(=O)O)cc1 [CBK267071] — lower, 95.5%
- CC(NC(=S)Nc1ccc(S(N)(=O)=O)cc1)c1ccncc1 (stereo not shown) [CBK267073] — higher, 111%
- NS(=O)(=O)c1ccc(NC(=S)Nc2nn(Cc3ccc(Cl)c(Cl)c3)cc2Br)cc1 [CBK267082] — lower, 94.4%
- Cc1cc(NC(=O)C(=O)NC(C)c2ccccc2)ccc1Br (stereo not shown) [CBK267084] — lower, 96.3%
- O=S(=O)(CC(CN1CCCCC1)N1CCCCC1)c1ccc2ccccc2c1 (stereo not shown) [CBK267087] — lower, 100%
- CCc1c(C)sc(NC(=S)Nc2cnccn2)c1C(=O)OC [CBK267088] — lower, 96.5%
- CC(=O)Nc1cccc(NC(=S)Nc2ccc(S(N)(=O)=O)cc2)c1 [CBK267091] — lower, 98.4%
- COc1cc([N+](=O)[O-])ccc1NC(=O)NCc1ccc(C(=O)O)cc1 [CBK267092] — lower, 87.1%
- O=C(Nc1ccc(N2CCN(Cc3ccccc3)CC2)cc1)c1cncc(Br)c1 [CBK267093] — lower, 85%
- COC(=O)c1sc2cc(NC(=S)NCc3ccc(S(N)(=O)=O)cc3)ccc2c1Cl [CBK267094] — lower, 81.7%
- COc1ccc(C)cc1NC(=O)NC1CCN(Cc2ccccc2)CC1 [CBK267095] — lower, 99.2%
- O=C(c1ccco1)N1CCN(C(=S)Nc2ccc(S(=O)(=O)Nc3ncccn3)cc2)CC1 [CBK267096] — higher, 104%
- N#CCCN(CCC#N)C(=O)CN1C(=O)c2ccccc2C1=O [CBK267100] — lower, 89%
- CCC(C)c1ccc(NC(=S)NCCn2cc(Cl)cn2)cc1 (stereo not shown) [CBK267101] — lower, 90.7%
- NS(=O)(=O)c1ccc(NC(=S)NNC(=S)Nc2ccc(F)cc2F)cc1 [CBK267102] — lower, 93.3%
- O=C(CCc1ccc(O)c(O)c1)NNC(=S)Nc1ccccc1C(F)(F)F [CBK267104] — lower, 94.2%
- Cc1ccc(Cl)cc1NC(=O)CC(C(=O)O)N(C)C (stereo not shown) [CBK267105] — higher, 112%
- COC(=O)c1ccc(NC(=O)COn2nnc3ccc([N+](=O)[O-])cc32)cc1 [CBK267106] — lower, 94.3%
- S=C(Nc1cccc(Cl)c1Cl)Nc1nn(Cc2ccc(Cl)c(Cl)c2)cc1Cl [CBK267109] — higher, 109%
- COC(=O)c1c(N=C(S)Nc2ccc(CC(=O)O)cc2)sc(C)c1C [CBK267111] — lower, 96.4%
- Cc1c(Cl)c(C(F)(F)F)nn1CCCNC(=S)Nc1ccc(S(N)(=O)=O)cc1 [CBK267113] — lower, 100%
- CCc1cc(C(=O)OC)c(NC(=S)Nc2nc3cc(C)c(C)cc3s2)s1 [CBK267116] — lower, 81%
- CN(CC(=O)N1CCN(Cc2ccccc2)CC1)S(=O)(=O)c1ccc2ccccc2c1 [CBK267117] — lower, 90.1%
- O=C(O)COc1ccc(-c2nnn(CC(=O)O)n2)cc1 [CBK267124] — lower, 87.6%
- COC(=O)c1c(N=C(S)NN2CCN(C)CC2)sc2c1CCC(C)C2 (stereo not shown) [CBK267125] — lower, 83.9%
- Fc1ccc(-c2n[nH]c(=S)n2CCCN2CCOCC2)cc1 [CBK267127] — lower, 100%
- CCCC(=O)Nc1ccc2c(c1)nc1n2CCN(Cc2ccccc2)C1 [CBK267129] — higher, 105%
- S=c1[nH]nc(CSc2nc3ccccc3[nH]2)n1-c1ccccc1 [CBK267133] — lower, 87.3%
- CC1=NN(C(=O)CSCc2ccccc2)C(O)(c2ccc(Cl)cc2)C1 (stereo not shown) [CBK267136] — lower, 92.7%
- O=C(O)c1ccc(-c2ccc(/C=C/c3[nH]c(=O)[nH]c(=O)c3[N+](=O)[O-])o2)cc1Cl [CBK267139] — lower, 94.9%
- O=C(CCCN1C(=O)c2ccccc2C1=O)Oc1ccc(-c2ccccc2)cc1 [CBK267144] — lower, 98.1%
- O=C(CSc1nc[nH]n1)Nc1ccc(-c2nc3ccccc3s2)cc1 [CBK267146] — lower, 81.9%
- O=C(Cn1c(C(F)(F)F)nc2ccccc21)NCCN1CCCC1 [CBK267150] — lower, 97.8%
- Cn1c(SCC(=O)N2CCN(Cc3ccccc3)CC2)nnc1-c1cccc([N+](=O)[O-])c1 [CBK267154] — lower, 90.6%
- CN(C)S(=O)(=O)c1ccc(NC(=O)CCC(=O)O)cc1 [CBK267156] — lower, 91.6%
- S=C(NCCc1c[nH]c2ccccc12)NCc1ccco1 [CBK267157] — lower, 92.7%
- Cc1cccc(C)c1NC(=O)CC1Sc2ccccc2NC1=O (stereo not shown) [CBK267160] — lower, 97%
- COc1ccc(Cl)cc1NC(=S)NNC(=O)c1cccnc1 [CBK267161] — lower, 92.7%
- c1ccc(Cc2nn3c(COc4ccccc4)nnc3s2)cc1 [CBK267163] — lower, 88%
- c1csc(-c2csc3ncnc(NCCCN4CCOCC4)c23)c1 [CBK267166] — lower, 98.1%
- Cc1ccc(C(=O)O)cc1S(=O)(=O)N(C)CCO [CBK267167] — lower, 94.1%
- CCN1C(=O)c2cccc3c(S(=O)(=O)N4CCCC4C(=O)O)ccc1c23 (stereo not shown) [CBK267169] — higher, 109%
- Cc1ccc(C(=O)O)cc1S(=O)(=O)NCCCO [CBK267171] — lower, 96.9%
- COC(=O)COc1ccc(S(=O)(=O)NCc2ccc3c(c2)OCO3)cc1C [CBK267172] — lower, 90.3%
- CCc1ccc(OCC(=O)NC(=S)Nc2cccc3nsnc23)cc1 [CBK267173] — lower, 100%
- Nc1ncnc2[nH]c(SCc3nc4ccc(I)cc4c(=O)n3-c3ccccc3)nc12 [CBK267174] — lower, 96.2%
- COc1ccc(S(=O)(=O)Nc2ccncc2)cc1N(C)S(=O)(=O)c1ccccc1 [CBK267179] — the same, 103%
- O=C(COc1cccc(Cl)c1)NNC(=S)Nc1ccccc1 [CBK267180] — lower, 88.4%
- O=C(Nc1ccncc1)c1ccc(CNS(=O)(=O)c2cccc(C(F)(F)F)c2)cc1 [CBK267181] — lower, 88.5%
- Cc1cc(-c2nn3c(-c4ccccc4)nnc3s2)c2ccccc2n1 [CBK267187] — lower, 101%
- CN(C)c1nc(NCc2ccccc2)nc(SCC(=O)Nc2ccccc2Cl)n1 [CBK267190] — lower, 93.3%
- O=C(CSc1nnnn1-c1ccccc1)Nc1nsc(-c2ccccc2)n1 [CBK267192] — higher, 108%
- Cc1cc(C)c(C)c(S(=O)(=O)NCc2ccc(C(=O)Nc3ccncc3)cc2)c1C [CBK267193] — lower, 90.5%
- Nc1nonc1C(=O)NCCNCc1ccc(Cl)cc1 [CBK267194] — lower, 101%
- CC(C)C(NS(=O)(=O)c1ccc(Oc2ccccc2Cl)cc1)C(=O)O (stereo not shown) [CBK267195] — lower, 100%
- Cc1nnc(SCC(=O)N2CCN(Cc3ccccc3)CC2)s1 [CBK267196] — lower, 96%
- O=C(O)c1ccccc1-c1ccccc1C(=O)NCCCO [CBK267197] — lower, 92.3%
- O=C(O)c1cccc(S(=O)(=O)N2CCC(C(=O)O)CC2)c1 [CBK267199] — lower, 93.6%
- O=C(Cn1nnc2ccccc21)NCCN1CCCC1 [CBK267200] — higher, 106%
